Earlier results in PMC9841982 (ACS Medicinal Chemistry Letters, 2022).

Columns and labels:
[1] = tested on: murine pancreatic islets; settings: free TAK-242, murine islet transplantation
[2] = authors' earlier work with TAK-242

In the case of CCOC(=O)C1=CCCC[C@H]1S(=O)(=O)Nc1ccc(F)cc1Cl [TAK-242, ethyl (6R)-6-[N-(2-Chloro-4-fluorophenyl)sulfamoyl]cyclohex-1-ene-1-carboxylate], the “effect of free drug on islets and transplant outcome” value [1] is given as “reduced sterile inflammation-mediated stress in islets during isolation and promoted successful transplant outcomes” and the sulfonamide bond stability [2] is given as “relatively stable”.
